The IC50 is the point on the concentration scale where inhibition reaches its midpoint. A higher IC50 goes with a need for much substance.

Some results are limits rather than exact numbers.

USP1 (construct USP1 (I-785, GG670, 671AA)/UAF1 (I-677)-Flag), sequence (O94782 whole entry G670A/G671A): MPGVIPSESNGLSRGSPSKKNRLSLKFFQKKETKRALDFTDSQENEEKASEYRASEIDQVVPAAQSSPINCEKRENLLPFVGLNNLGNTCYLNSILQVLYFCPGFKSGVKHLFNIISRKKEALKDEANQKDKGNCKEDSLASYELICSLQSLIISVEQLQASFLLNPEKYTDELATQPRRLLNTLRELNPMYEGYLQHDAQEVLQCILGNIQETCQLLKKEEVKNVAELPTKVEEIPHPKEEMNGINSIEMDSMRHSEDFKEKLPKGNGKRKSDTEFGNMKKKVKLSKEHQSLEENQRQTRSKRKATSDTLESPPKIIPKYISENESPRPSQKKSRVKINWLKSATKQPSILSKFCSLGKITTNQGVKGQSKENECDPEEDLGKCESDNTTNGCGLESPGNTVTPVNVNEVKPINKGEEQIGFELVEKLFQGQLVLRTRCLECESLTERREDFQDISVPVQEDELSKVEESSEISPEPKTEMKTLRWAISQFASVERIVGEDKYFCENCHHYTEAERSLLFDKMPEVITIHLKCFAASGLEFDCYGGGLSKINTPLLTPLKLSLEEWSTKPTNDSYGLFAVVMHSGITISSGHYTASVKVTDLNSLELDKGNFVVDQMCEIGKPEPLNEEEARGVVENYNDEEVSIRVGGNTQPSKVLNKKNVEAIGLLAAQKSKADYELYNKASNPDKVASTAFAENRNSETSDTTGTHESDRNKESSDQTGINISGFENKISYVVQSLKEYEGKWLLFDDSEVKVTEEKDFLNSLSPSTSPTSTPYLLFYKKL
USP1 (construct USP1 (I-785, GG670, 671AA)/UAF1 (I-677)-Flag), sequence (Q8TAF3 whole entry partner): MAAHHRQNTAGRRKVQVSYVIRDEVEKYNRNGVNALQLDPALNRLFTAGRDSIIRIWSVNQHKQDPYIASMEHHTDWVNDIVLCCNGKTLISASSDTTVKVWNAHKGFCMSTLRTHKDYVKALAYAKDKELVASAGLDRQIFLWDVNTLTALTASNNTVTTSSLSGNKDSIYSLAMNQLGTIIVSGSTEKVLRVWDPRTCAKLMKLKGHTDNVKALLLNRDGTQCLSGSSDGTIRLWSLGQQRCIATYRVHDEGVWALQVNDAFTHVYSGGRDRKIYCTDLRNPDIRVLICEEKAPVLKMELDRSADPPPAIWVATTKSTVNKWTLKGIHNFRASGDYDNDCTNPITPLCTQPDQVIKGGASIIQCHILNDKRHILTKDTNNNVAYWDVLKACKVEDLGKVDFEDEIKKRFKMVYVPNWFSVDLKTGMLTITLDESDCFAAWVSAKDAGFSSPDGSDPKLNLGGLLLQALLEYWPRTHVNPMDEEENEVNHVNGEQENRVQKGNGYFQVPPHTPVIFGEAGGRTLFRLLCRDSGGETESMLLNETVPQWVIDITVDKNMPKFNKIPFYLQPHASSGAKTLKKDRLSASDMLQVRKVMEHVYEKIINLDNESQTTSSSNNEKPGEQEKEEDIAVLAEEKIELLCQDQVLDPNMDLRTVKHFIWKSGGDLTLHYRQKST

The assay concerns the target USP1 (construct USP1 (I-785, GG670, 671AA)/UAF1 (I-677)-Flag) (Homo sapiens (Human), UniProt O94782, G670A/G671A). Nature of the assay: Ubiquitin-Rhodamine 110 assay for USP1 activity. The format is biochemical. To be noted: USP1/UAF1 25 pM, Ub-Rh110 25 nM, 30 min preincubation. The method in brief: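 Two formats with the USP1/UAF1 complex and 25 nM ubiquitin-rhodamine 110 in pH 8.0 Tris buffer with calcium, glutathione and detergent. Single-point screening used 10 µM, 100 pM enzyme and 45 min. Inhibition was set against no-enzyme and DMSO wells.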
Turning to `CC(C)c1ccccc1-c1ncc2c(n1)n(Cc1ccc(-c3nccn4ccnc34)cc1)c(=O)n2C` [Compound I-289, 9-(4-(imidazo[1,2-a]pyrazin-8-yl)benzyl)-2-(2-isopropylphenyl)-7-methyl-7,9-dihydro-8H-purin-8-one], the IC50 was under 50 nM. As to `[2H]C([2H])([2H])n1c(=O)n(Cc2ccc(-c3nc(C(F)(F)F)cn3C)cc2)c2nc(-c3cccnc3C(C)C)ncc21` [Compound I-129, 2-(2-isopropylpyridin-3-yl)-7-(methyl-d3)-9-(4-(1-methyl-4-(trifluoromethyl)-1H-imidazol-2-yl)benzyl)-7,9-dihydro-8H-purin-8-one], the IC50 was under 50 nM. `CC(C)c1ccccc1-c1ncc2c(n1)n(Cc1ccc(-c3nccn3C)cc1)c(=O)n2C` [Compound I-257, 2-(2-isopropylphenyl)-7-methyl-9-(4-(1-methyl-1H-imidazol-2-yl)benzyl)-7,9-dihydro-8H-purin-8-one] came in with an IC50 of under 50 nM. Under `CC1CCN(C(=O)c2ccc(Cn3c(=O)[nH]c4cnc(-c5ccccc5C(C)C)nc43)cc2)CC1` [Compound I-366, 2-(2-isopropylphenyl)-9-(4-(4-methylpiperidine-1-carbonyl)benzyl)-7,9-dihydro-8H-purin-8-one] stands 50 to 200 nM; under `CC(C)c1ccccc1-c1ncc2[nH]c(=O)n(Cc3ccc(-n4cc(CS(C)(=O)=O)nn4)cc3)c2n1` [Compound I-350, 2-(2-isopropylphenyl)-9-(4-(4-((methylsulfonyl)methyl)-1H-1,2,3-triazol-1-yl)benzyl)-7,9-dihydro-8H-purin-8-one], over 2000 nM; under `CC(C)c1ccccc1-c1ncc2[nH]c(=O)n(Cc3ccc(-c4nc(C(F)(F)F)cn4C4COC4)cc3)c2n1` [Compound I-192, 2-(2-isopropylphenyl)-9-(4-(1-(oxetan-3-yl)-4-(trifluoromethyl)-1H-imidazol-2-yl)benzyl)-7,9-dihydro-8H-purin-8-one], under 50 nM. Consider `CC(C)c1ccccc1-c1ncc2[nH]c(=O)n(Cc3ccc(C(=O)N(C)Cc4ccc(F)cc4)cc3)c2n1` [Compound I-365, N-(4-fluorobenzyl)-4-((2-(2-isopropylphenyl)-8-oxo-7,8-dihydro-9H-purin-9-yl)methyl)-N-methylbenzamide], for which the IC50 was 50 to 200 nM. In turn, `O=c1[nH]c2cnc(-c3cccnc3OC(F)F)nc2n1Cc1ccc(-n2nccn2)cc1` [Compound I-4, 9-(4-(2H-1,2,3-triazol-2-yl)benzyl)-2-(2-(difluoromethoxy)pyridin-3-yl)-7,9-dihydro-8H-purin-8-one] registered an IC50 of over 2000 nM. Turning to `CC(C)c1ccccc1-c1ncc2[nH]c(=O)n(Cc3ccc(-c4ncn(C)c4CO)cc3)c2n1` [Compound I-297, 9-(4-(5-(hydroxymethyl)-1-methyl-1H-imidazol-4-yl)benzyl)-2-(2-isopropylphenyl)-7,9-dihydro-8H-purin-8-one], the IC50 was 200 to 2000 nM. `CC(C)Oc1ncccc1-c1ncc2[nH]c(=O)n(Cc3ccc(-c4nc(C(F)(F)F)cn4C)cc3)c2n1` [Compound I-416, 2-(2-isopropoxypyridin-3-yl)-9-(4-(1-methyl-4-(trifluoromethyl)-1H-imidazol-2-yl)benzyl)-7,9-dihydro-8H-purin-8-one] registered an IC50 of under 50 nM.

Regarding `CC(C)COc1ncccc1-c1ncc2[nH]c(=O)n(Cc3ccc(-n4nccn4)cc3)c2n1` [Compound I-5, 9-(4-(2H-1,2,3-triazol-2-yl)benzyl)-2-(2-isobutoxypyridin-3-yl)-7,9-dihydro-8H-purin-8-one], the IC50 was over 2000 nM. Next, `Cc1cc(C(=O)N(C)C)nn1-c1ccc(Cn2c(=O)[nH]c3cnc(-c4ccccc4C(C)C)nc32)cc1` [Compound I-503, 1-(4-((2-(2-Isopropylphenyl)-8-oxo-7,8-dihydro-9H-purin-9-yl)methyl)phenyl)-N,N,5-trimethyl-1H-pyrazole-3-carboxamide]: under 50 nM; `Cc1coc(-c2ccc(Cn3c(=O)n(C)c4cnc(-c5ccccc5C(C)C)nc43)cc2)n1` [Compound I-290, 2-(2-isopropylphenyl)-7-methyl-9-(4-(4-methyloxazol-2-yl)benzyl)-7,9-dihydro-8H-purin-8-one]: under 50 nM; `CC(C)c1ccccc1-c1ncc2c(n1)n(Cc1ccc(-c3cnn4c3COCC4)cc1)c(=O)n2C` [Compound I-265, 9-(4-(6,7-dihydro-4H-pyrazolo[5,1-c][1,4]oxazin-3-yl)benzyl)-2-(2-isopropylphenyl)-7-methyl-7,9-dihydro-8H-purin-8-one]: 200 to 2000 nM. Take `CN(C)CCOc1ncccc1-c1ncc2[nH]c(=O)n(Cc3ccc(-c4nc(C(F)(F)F)cn4C)cc3)c2n1` [Compound I-429, 2-(2-(2-(dimethylamino)ethoxy)pyridin-3-yl)-9-(4-(1-methyl-4-(trifluoromethyl)-1H-imidazol-2-yl)benzyl)-7,9-dihydro-8H-purin-8-one]: the IC50 fell in the range of 200 to 2000 nM. In turn, `CC(C)c1ccccc1-c1ncc2[nH]c(=O)n(Cc3cccc(-n4cccn4)c3)c2n1` [Compound I-197, 9-(3-(1H-pyrazol-1-yl)benzyl)-2-(2-isopropylphenyl)-7,9-dihydro-8H-purin-8-one] came in with an IC50 of 50 to 200 nM. Compound `CC(C)c1ccccc1-c1ncc2c(n1)n(Cc1ccc(NS(=O)(=O)c3nccn3C)cc1)c(=O)n2C` [Compound I-454, N-(4-((2-(2-isopropylphenyl)-7-methyl-8-oxo-7,8-dihydro-9H-purin-9-yl)methyl)phenyl)-1-methyl-1H-imidazole-2-sulfonamide] showed an IC50 of 200 to 2000 nM.

With `CC(C)c1ncccc1-c1ncc2[nH]c(=O)n(C3(c4ccc(-c5nc(C(F)(F)F)cn5C)cc4)CC3)c2n1` [Compound I-51, 2-(2-isopropylpyridin-3-yl)-9-(1-(4-(1-methyl-4-(trifluoromethyl)-1H-imidazol-2-yl)phenyl)cyclopropyl)-7,9-dihydro-8H-purin-8-one], the half-maximal inhibitory concentration (IC50) is under 50 nM. `Cn1cc(C(F)(F)F)nc1-c1ccc(Cn2c(=O)[nH]c3cnc(-c4cccnc4C(F)F)nc32)cc1` [Compound I-64, 2-(2-(difluoromethyl)pyridin-3-yl)-9-(4-(1-methyl-4-(trifluoromethyl)-1H-imidazol-2-yl)benzyl)-7,9-dihydro-8H-purin-8-one]: the IC50 is 50 to 200 nM. On to `CC(=O)N1CCC(c2ccn(-c3ccc(Cn4c(=O)[nH]c5cnc(-c6cccc(F)c6C(C)C)nc54)cc3)n2)CC1` [Compound I-464, 9-(4-(3-(1-acetylpiperidin-4-yl)-1H-pyrazol-1-yl)benzyl)-2-(3-fluoro-2-isopropylphenyl)-7,9-dihydro-8H-purin-8-one], for which the IC50 was 50 to 200 nM. Turning to `Cc1cc(N2CCC2)nn1-c1ccc(Cn2c(=O)[nH]c3cnc(-c4cccnc4C(C)C)nc32)cc1` [Compound I-68, 9-(4-(3-(azetidin-1-yl)-5-methyl-1H-pyrazol-1-yl)benzyl)-2-(2-isopropylpyridin-3-yl)-7,9-dihydro-8H-purin-8-one], the IC50 lay within 50 to 200 nM. `Cc1cc(C(F)(F)F)nn1-c1ccc(Cn2c(=O)[nH]c3cnc(-c4ccccc4C(C)C)nc32)cc1` [Compound I-194, 2-(2-isopropylphenyl)-9-(4-(5-methyl-3-(trifluoromethyl)-1H-pyrazol-1-yl)benzyl)-7,9-dihydro-8H-purin-8-one] had an IC50 of under 50 nM.

The values above are taken from US10189841B2, “Purinones as ubiquitin-specific protease 1 inhibitors” (Forma Therapeutics, Inc., priority 2015, dated 2019).
